# Reference: the NIST ThermoML archive (doi:10.1021/je900302n)
# ± gives the expanded uncertainty stated by the source.
# Conditions: Liquid; pulse heating
Critical pressure [kPa],Critical temperature [K],SMILES
610 ± 40,882 ± 18,CCCCCCCCCC[O][Ti]([O]CCCCCCCCCC)([O]CCCCCCCCCC)[O]CCCCCCCCCC [tetra(decyloxy)titanium]
1400 ± 80,647 ± 12,CC[O-].CC[O-].CC[O-].CC[O-].[Ti+4] [tetraethoxytitanium]
780 ± 40,780 ± 16,CCCCCC[O][Ti]([O]CCCCCC)([O]CCCCCC)[O]CCCCCC [tetrakis(hexyloxy)titanium]
910 ± 60,751 ± 16,CCCCC[O][Ti]([O]CCCCC)([O]CCCCC)[O]CCCCC [tetrakis(pentyloxy)titanium]
630 ± 40,855 ± 18,CCCCCCCCC[O][Ti]([O]CCCCCCCCC)([O]CCCCCCCCC)[O]CCCCCCCCC [tetranonoxytitanium]
1150 ± 80,685 ± 14,CCC[O-].CCC[O-].CCC[O-].CCC[O-].[Ti+4] [tetrapropoxytitanium]
1020 ± 60,719 ± 14,CCCC[O-].CCCC[O-].CCCC[O-].CCCC[O-].[Ti+4] [titanium(IV) butan-1-olate]

SMILES,Critical pressure [kPa],Critical temperature [K]
CCCCCCC[O][Ti]([O]CCCCCCC)([O]CCCCCCC)[O]CCCCCCC [tetraheptoxytitanium],730 ± 40,808 ± 16
CCCCCCCC[O][Ti]([O]CCCCCCCC)([O]CCCCCCCC)[O]CCCCCCCC [tetraoctoxytitanium],660 ± 40,831 ± 16
